Assay results: patent publication EP4574835A1, “AMORPHOUS FORM OF KETOAMIDE DERIVATIVE, AND PREPARATION METHOD THEREFOR” (Guangdong Raynovent Biotech Co., Ltd., priority 2022, dated 2024)

Test: Pharmacokinetic model of mouse
Type: in vivo

Compound: O=C(NC1CCCC1)C(=O)[C@H](C[C@@H]1CCNC1=O)NC(=O)[C@@H]1[C@H]2CCC[C@H]2CN1C(=O)[C@@H](NC(=O)C(F)(F)F)C1CCCCC1 [Compound of Formula (I)]
- clearance rate: lower
- half-life: longer
